Source: US20120283335A1, “Analogs of Propofol, Preparation Thereof and Use as Anesthetics” (priority 2008, published 2012)
“Also recorded” adds a separate entry of the source.

Tests used:
Male Sprague Dawley rats = assay: Test A. Loss of Righting Reflex Assay with dose escalation to maximum tolerated dose; type: in vivo; settings: rat; for Safety compared with propofol: doses escalated; for Potency compared with propofol: equal dose (7 mg/kg), 7 mg/kg
Text: The ability of a compound of the invention to produce an anesthetic effect (i.e. efficacy) can be determined using standard pharmacological models that are well known to the art. […] The potency of such a compound was compared to the potency of propofol using this assay.
The safety of a compound of the invention can be determined using standard pharmacological models that are well known to the art. […] The safety of such a compound was compared to that of propofol using this assay.
Male Sprague Dawley rats were restrained in a holder, and test compound or propofol was injected in the tail vein (based on milligrams (mg) compound per kilogram (kg) body weight). Following administration, the rats were placed in a dorsal recumbent position on a heating blanket. The time to onset for the loss of the Righting Reflex (RR-ability of rat to right itself) was recorded, as was the duration of the loss of the RR. Doses were escalated until the maximum tolerated doses were achieved.

pig = assay: Test B. Anesthetized Pig Model (hemodynamic profile); type: in vivo; settings: 20 minute intravenous infusion, data in FIGS. 1 and 2
Description: The hemodynamic profile of a compound of the invention can be determined using standard pharmacological models that are well known to the art. The hemodynamic and anesthetic profiles of a compound of the invention can be evaluated simultaneously using an anesthetized pig model (as described in Test B below).
The anesthetic induction was performed using a modification of a technique described by Ko et al (Ko et al., Lab Anim Sci 1993; 43: 476-80) for swine (Telazol, xylazine and ketamine given as an intramuscular injection). The minimal effective dose for induction and tracheal intubation was used. […]
A compound of the invention or propofol was administered intravenously by a 20 minute infusion after the stabilization period through the peripheral IV catheter. […] Blood samples (1 mL each) were collected at pre-dose and at 2, 4, 6, 8, 10, 12, 15, 20, 22, […], 25, 35, 50, 65 and 80 minutes after the start of the first infusion for pharmacokinetic purposes; EEG were recorded continuously as the primary pharmacodynamic endpoint. […]
The EEG signal was fed to a BIS analyzer (Aspect Medical) which provided continuous output of processed EEG data. The output consisted of a “BIS” number calculated by a proprietary algorithm that ranges between 100 (fully conscious) and 0 (isoelectric) and indicated brain activity.
Hemodynamic data were recorded and plotted to assess trends over the drug exposure period. […]

Structure (SMILES)	Safety compared with propofol (Male Sprague Dawley rats)	Potency compared with propofol (Male Sprague Dawley rats)	Outcome: deaths (Male Sprague Dawley rats; tail vein bolus dose 7 mg/kg)	Outcome: minutes of sleep post bolus dose (Male Sprague Dawley rats; tail vein bolus dose 7 mg/kg)	Outcome: deaths (Male Sprague Dawley rats; tail vein bolus dose 14 mg/kg)	Outcome: deaths (Male Sprague Dawley rats; tail vein bolus dose 21 mg/kg)	Potency compared with propofol (Male Sprague Dawley rats; listed as 2-(1-Ethylpropyl)-6-isopropylphenol)	Hemodynamic properties compared with propofol (pig)
CC(C)c1cccc(C(C)C(C)C)c1O (racemic) [2-(3-methyl)secbutyl-6-isopropylphenol]	greater safety compared to propofol; also recorded: improved safety	at least equivalent, if not greater potency than propofol; also recorded: at least equivalent potency	0/6 deaths	7.5 minutes of sleep post	0/6 deaths	0/6 deaths	–	–
CCC(CC)c1cccc(C(C)C)c1O [2-(1-ethylpropyl)-6-isopropylphenol]	greater safety compared to propofol; also recorded: improved safety	at least equivalent potency	0/6 deaths	9.9 minutes of sleep post	0/6 deaths	0/6 deaths	at least equivalent, if not greater, potency than propofol	improved hemodynamic properties
CC(C)c1cccc(C(C)C)c1O [Propofol, 2,6-diisopropylphenol]	–	–	0/10 deaths	7.1 minutes of sleep post	6/10 deaths	4/6 deaths	–	–
